In US20080181848A1 (priority 2004, published 2008):
Counter-ions that a name gives are not always drawn.

Key:
[1] = molecular target: T1, D2 receptors in striatum (Rattus norvegicus, UniProt P61169); test: Binding of intravenously injected radioligand in rat striatum, alone and co-injected with NPA (Examples 2 and 3); type: in vivo, Sprague-Dawley rats
T1 construct: from tissue; host or cells: striatum of Sprague-Dawley rats (in vivo labelling)
Source text: In describing and validating the method of the present invention using rats instead of humans, there are certain considerations that should be noted. For example, each rat is not imaged, but is guillotined, and the striatum removed in order to measure the radioactivity in DPM/mg tissue, where DPM represents disintegrations per minute.
Sprague-Dawley rats (275-300 g) were restrained in transparent polystyrene cages. The tail vein was warmed in warm water.

[2] = molecular target: D1 receptor (Homo sapiens, UniProt P21728); conditions: D1^High state; read-out: dissociation constant for the high-affinity state of the D1 receptor; cited from earlier work
Chain of D1 receptor (P21728 whole entry): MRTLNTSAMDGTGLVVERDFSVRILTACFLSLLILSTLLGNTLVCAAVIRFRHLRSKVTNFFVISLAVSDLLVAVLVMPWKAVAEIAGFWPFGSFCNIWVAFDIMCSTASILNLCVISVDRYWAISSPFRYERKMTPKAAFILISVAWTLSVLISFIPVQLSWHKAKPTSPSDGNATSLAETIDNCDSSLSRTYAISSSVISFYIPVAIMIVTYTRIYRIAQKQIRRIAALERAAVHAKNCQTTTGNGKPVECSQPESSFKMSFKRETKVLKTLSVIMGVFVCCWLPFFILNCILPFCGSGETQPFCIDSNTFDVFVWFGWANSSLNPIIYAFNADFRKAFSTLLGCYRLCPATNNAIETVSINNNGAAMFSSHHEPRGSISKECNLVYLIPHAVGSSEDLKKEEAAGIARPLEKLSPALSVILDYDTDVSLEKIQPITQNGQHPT

[3] = rat striatum, radioligand co-injected i.v. with NPA 25 μg/kg
[4] = 25 μg/Kg NPA co-injected i.v., rats, n=6

T1 sequence (P61169 whole entry): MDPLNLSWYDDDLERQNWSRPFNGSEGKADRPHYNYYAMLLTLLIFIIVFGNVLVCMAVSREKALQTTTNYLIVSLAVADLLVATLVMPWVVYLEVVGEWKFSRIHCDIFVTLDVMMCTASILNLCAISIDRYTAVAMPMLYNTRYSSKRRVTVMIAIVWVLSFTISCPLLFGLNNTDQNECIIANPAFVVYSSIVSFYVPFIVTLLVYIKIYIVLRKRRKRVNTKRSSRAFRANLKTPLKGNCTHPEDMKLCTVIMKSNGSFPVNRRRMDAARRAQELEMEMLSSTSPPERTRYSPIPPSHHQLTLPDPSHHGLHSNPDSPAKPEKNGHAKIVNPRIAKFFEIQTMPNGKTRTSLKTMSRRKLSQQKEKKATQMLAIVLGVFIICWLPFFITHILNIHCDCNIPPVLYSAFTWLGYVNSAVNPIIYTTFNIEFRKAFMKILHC

For `CCN1CCC[C@H]1CNC(=O)c1c(O)c(Cl)cc(Cl)c1OC` (racemic) [[^3H]Raclopride], the Control ([1]; rat striatum, 30 min after i.v. 0.1 nmol radioligand, no NPA) was 2.8 pmol/g, the “Control DPM/mg (total binding in striatum)” value ([1]; rat striatum, 30 min after i.v. 0.1 nmol radioligand, no NPA, n=6) was 37.9 DPM/mg and the “pmol/g Displaced by NPA” value ([1]; rat striatum, NPA 25 μg/kg co-injected) was 1.09 pmol/g. For the same compound, the “With NPA” value [1, 3] was 1.71 pmol/g and the “With NPA DPM/mg” value [1, 3] was 23.13 DPM/mg.
In the case of `CCCN1CCOC2c3cc(O)ccc3CCC21` (single isomer, unassigned; (+)) [(+)PHNO, (+)-4-propyl-9-hydroxy-2,3,4a,5,6,10b-hexahydro-4H-naphth[1,2b][1,4]oxazine HCl], the Kd [2] is listed as 0.08 µM.
With `CCCN1CCc2cccc3c2[C@H]1Cc1ccc(O)c(O)c1-3` [NPA, N-propyl-norapomorphine] the “binding of radioactive raclopride, level of the control value” ([1]; 25 μg/Kg NPA co-injected i.v., rats, mean ±s.e., n=6, P=0.0004 vs (+)PHNO) was 61%±2.9 % of the control value, the “binding of radioactive (+)PHNO, level of the control value” [1, 4] was 46 % of the control value and the “inhibition of the binding of radioactive raclopride” value [1, 4] was 39%. For the same compound, the “inhibition of the binding of radioactive (+)PHNO” value ([1]; 25 μg/Kg NPA co-injected i.v., rats, n=6, representative experiment) was 54% and the “inhibition of the D2^High receptors” value ([1]; normal rats, NPA 25 μg/kg i.v. co-injected with radioactive (+)PHNO) was 53%.
